Laboratory results published in patent US11639350B2, “Heteroaryldihydropyrimidine derivatives and methods of treating hepatitis B infections” (Janssen Pharmaceutica NV, priority 2018, dated 2023).
Where two headings read alike, the source gives them in different places.

Legend:
HBV = HBV inhibitory activity: HBV DNA in the culture medium of HepG2.2.15 cells by q-PCR; format: cell-based; conditions: HepG2.2.15 cells, 6 days of compound treatment, HBV DNA in culture medium by q-PCR, highest concentration 10 μM, read-out: EC50
In short: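 Supernatant HBV DNA quantified by q-PCR after a 6-day compound exposure, with one mid-course medium change, of HepG2.2.15 cells (stably integrated HBV; 40,000 per well, 2% FBS). Eight-point 3-fold series topped at 10 μM for antiviral EC50; separate plates of 5,000 cells per well with 100 μM top give CC50.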

HepG2.2.15 cells = assay: Cytotoxicity determination in HepG2.2.15 cells (CCK-8); format: cell-based; conditions: 6 days of compound treatment, CCK-8, highest concentration 100 μM
In short: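 CC50 is from CCK-8 absorbance (450 nm, 630 nm reference) after 2.5 h with reagent. Before that, compounds were applied for six days, top concentration 100 μM, eight threefold dilutions, one mid-course medium change, to stably HBV-integrated HepG2.2.15 cells plated at 5,000/well in 2% FBS.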

[1] = Hepatitis B virus, HepG2.2.15, 144 h

Row | SMILES | EC50 (HBV) [nM] | CC50 (HepG2.2.15 cells) [nM] | EC50 (HBV; [1]) [nM]
1 | COC(=O)C1=C(C2CCOC2)NC(c2nccs2)=NC1c1cccc(F)c1Cl (single isomer, unassigned) [Compound 74C, Methyl 4-(2-chloro-3-fluorophenyl)-6-(tetrahydrofuran-3-yl)-2-(thiazol-2-yl)-1,4-dihydropyrimidine-5-carboxylate] | 249 | 86500 | –
2 | COC(=O)C1=C(C2CCN(S(C)(=O)=O)C2)NC(c2nccs2)=NC1c1ccc(F)cc1Cl (single isomer, unassigned) [Compound 65C, 4-(2-Chloro-4-fluoro-phenyl)-6-(1-methanesulfonyl-pyrrolidin-3-yl)-2-thiazol-2-yl-1,4-dihydro-pyrimidine-5-carboxylic Acid Methyl Ester] | 378 | 19500 | –
3 | COC(=O)C1=C(C2CCC(NS(C)(=O)=O)C2)NC(c2nccs2)=NC1c1cccc(F)c1Cl (single isomer, unassigned) [Compound 61G, Methyl 4-(2-chloro-3-fluorophenyl)-6-(3-(methylsulfonamido)-cyclopentyl)-2-(thiazol-2-yl)-1,4-dihydropyrimidine-5-carboxylate] | 423 | > 10000 | –
4 | COC(=O)C1=C(C2CCN(C)C(=O)C2)NC(c2nccs2)=NC1c1ccc(F)cc1Cl (single isomer, unassigned) [Compound 1B, Methyl 4-(2-chloro-4-fluorophenyl)-6-(1-methyl-2-oxopiperidin-4-yl)-2-(thiazol-2-yl)-1,4-dihydropyrimidine-5-carboxylate] | 96 | 13600 | –
5 | COC(=O)C1=C(C2CCNC(=O)C2)NC(c2nccs2)=NC1c1ccc(F)cc1Cl (single isomer, unassigned) [Compound 3A, Methyl 4-(2-chloro-4-fluorophenyl)-6-(2-oxopiperidin-4-yl)-2-(thiazol-2-yl)-1,4-dihydro-pyrimidine-5-carboxylate] | – | 35900 | 126
6 | CCOC(=O)C1=C([C@H]2CCC[C@H](C(=O)O)CC2)NC(c2nccs2)=NC1c1ccc(F)c(F)c1Cl (single isomer, unassigned) [Compound 302F, (trans)-4-(−6-(2-Chloro-3,4-difluorophenyl)-5-(ethoxycarbonyl)-2-(thiazol-2-yl)-3,6-dihydropyrimidin-4-yl)cycloheptanecarboxylic Acid] | 37 | 10300 | –
7 | COC(=O)C1=C(C2CCN(S(C)(=N)=O)CC2)NC(c2nccs2)=NC1c1ccc(F)c(F)c1Cl (stereo not shown) [Compound 205B, methyl 4-(2-chloro-3,4-difluorophenyl)-6-(1-(S-methylsulfonimidoyl)piperidin-4-yl)-2-(thiazol-2-yl)-1,4-dihydropyrimidine-5-carboxylate] | 189 | 40500 | –
8 | CCOC(=O)C1=C(C2CCN(S(=O)(=O)[C@H]3C[C@H](C(=O)O)C3)CC2)NC(c2nccs2)=NC1c1ccc(F)c(F)c1C (single isomer, unassigned) [Compound 343C, (trans)-3-((4-(6-(3,4-difluoro-2-methylphenyl)-5-(ethoxycarbonyl)-2-(thiazol-2-yl)-3,6-dihydropyrimidin-4-yl)piperidin-1-yl)sulfonyl)cyclobutanecarboxylic Acid] | 14 | 25200 | –
9 | CCOC(=O)C1=C(C2CCN(S(=O)(=O)C3CC(C)(C(=O)O)C3)CC2)NC(c2nccs2)=NC1c1ccc(F)cc1Cl (stereo not drawn) [Compound 272A, (trans)-3-((4-(6-(2-Chloro-4-fluorophenyl)-5-(ethoxycarbonyl)-2-(thiazol-2-yl)-3,6-dihydropyrimidin-4-yl)piperidin-1-yl)sulfonyl)-1-methylcyclobutanecarboxylic Acid] | 17 | 16600 | –
10 | CCOC(=O)C1=C([C@@H]2C[C@H]2CC(=O)O)NC(c2nccs2)=NC1c1ccc(F)cc1Cl (single isomer, unassigned) [Compound 93, 2-(trans-2-(6-(2-Chloro-4-fluorophenyl)-5-(ethoxycarbonyl)-2-(thiazol-2-yl)-3,6-dihydropyrimidin-4-yl)cyclopropyl)acetic Acid] | 507 | 92500 | –
11 | CCOC(=O)C1=C([C@@H]2CC[C@H](C(=O)O)OC2)NC(c2nccs2)=NC1c1ccc(F)cc1Cl (single isomer, unassigned) [Compound 265H, (cis)-5-(−6-(2-Chloro-4-fluorophenyl)-5-(ethoxycarbonyl)-2-(thiazol-2-yl)-3,6-dihydropyrimidin-4-yl)tetrahydro-2H-pyran-2-carboxylic Acid] | 214 | > 100000 | –
12 | COC(=O)C1=C(C2CCNC(=O)C2)NC(c2nccs2)=NC1c1ccc(F)cc1Cl (single isomer, unassigned) [Compound 3C, Methyl 4-(2-chloro-4-fluorophenyl)-6-(2-oxopiperidin-4-yl)-2-(thiazol-2-yl)-1,4-dihydro-pyrimidine-5-carboxylate] | 132 | 5600 | –
13 | COC(=O)C1=C([C@H]2CC[C@H](NS(C)(=N)=O)CC2)NC(c2nccs2)=NC1c1ccc(F)cc1Cl (single isomer, unassigned) [Compound 287B, Methyl 4-(2-chloro-4-fluorophenyl)-6-((trans)-4-(methylsulfonoimidamido)cyclohexyl)-2-(thiazol-2-yl)-1,4-dihydropyrimidine-5-carboxylate] | – | 23100 | 72
14 | COC(=O)C1=C(C2CCN(S(=O)(=O)C3CC(C)(C(=O)O)C3)CC2)NC(c2nccs2)=NC1c1ccc(F)cc1Cl (stereo not drawn) [Compound 142, (cis)-3-((4-(6-(2-chloro-4-fluorophenyl)-5-(methoxycarbonyl)-2-(thiazol-2-yl)-3,6-dihydropyrimidin-4-yl)piperidin-1-yl)sulfonyl)-1-methylcyclobutane-1-carboxylic Acid] | 89 | 37600 | –
15 | COC(=O)C1=C(C2CCCOC2)NC(c2nccs2)=NC1c1ccc(F)cc1Cl (single isomer, unassigned) [Compound 48A, Methyl 4-(2-chloro-4-fluorophenyl)-6-(tetrahydro-2H-pyran-3-yl)-2-(thiazol-2-yl)-1,4-dihydropyrimidine-5-carboxylate] | 565 | 46900 | –
16 | COC(=O)C1=C(C2CCN(S(=O)(=O)C3CC(C)(C(=O)OC)C3)CC2)NC(c2nccs2)=NC1c1ccc(F)c(F)c1Cl (single isomer, unassigned) [Compound 323D, cis-methyl 4-(2-chloro-3,4-difluorophenyl)-6-(1-((3-(methoxycarbonyl)-3-methylcyclobutyl)sulfonyl)piperidin-4-yl)-2-(thiazol-2-yl)-1,4-dihydropyrimidine-5-carboxylate] | 30 | 28600 | –
17 | CCOC(=O)C1=C([C@H]2CC[C@H](C(=O)O)CO2)NC(c2nccs2)=NC1c1ccc(F)cc1Cl (single isomer, unassigned) [Compound 363H, (trans)-6-(6-(2-Chloro-4-fluorophenyl)-5-(ethoxycarbonyl)-2-(thiazol-2-yl)-3,6-dihydropyrimidin-4-yl)tetrahydro-2H-pyran-3-carboxylic Acid] | 650 | > 100000 | –
18 | COC(=O)C1=C(C2CCC(NC(C)=O)C2)NC(c2nccs2)=NC1c1ccc(F)c(F)c1Cl (single isomer, unassigned) [Compound 300G, Methyl 6-(−3-acetamidocyclopentyl)-4-(2-chloro-3,4-difluorophenyl)-2-(thiazol-2-yl)-1,4-dihydropyrimidine-5-carboxylate] | 122 | 23900 | –
19 | COC(=O)C1=C(C2CCN(C)C(=O)C2)NC(c2nccs2)=NC1c1ccc(F)cc1Cl (single isomer, unassigned) [Compound 1A, Methyl 4-(2-chloro-4-fluorophenyl)-6-(1-methyl-2-oxopiperidin-4-yl)-2-(thiazol-2-yl)-1,4-dihydropyrimidine-5-carboxylate] | 386 | 90200 | –
20 | COC(=O)C1=C(C2CCC(NC(C)=O)C2)NC(c2nccs2)=NC1c1cccc(F)c1Cl (single isomer, unassigned) [Compound 62G, Methyl 6-(3-acetamidocyclopentyl)-4-(2-chloro-3-fluorophenyl)-2-(thiazol-2-yl)-1,4-dihydropyrimidine-5-carboxylate] | 119 | 37100 | –
21 | CCOC(=O)C1=C(C2CCN(S(=O)(=O)C3CC(C)(C(=O)O)C3)CC2)NC(c2nccs2)=NC1c1cccc(F)c1C (single isomer, unassigned) [Compound 429D, (cis)-3-((4-(−5-(Ethoxycarbonyl)-6-(3-fluoro-2-methylphenyl)-2-(thiazol-2-yl)-3,6-dihydropyrimidin-4-yl)piperidin-1-yl)sulfonyl)-1-methylcyclobutanecarboxylic Acid] | 49 | 16000 | –
22 | COC(=O)C1=C(C2CCCC(C(=O)O)CC2)NC(c2nccs2)=NC1c1ccc(F)cc1Cl (single isomer, unassigned) [Compound 95C, 4-(6-(2-Chloro-4-fluorophenyl)-5-(methoxycarbonyl)-2-(thiazol-2-yl)-3,6-dihydropyrimidin-4-yl)cycloheptanecarboxylic Acid] | 117 | 33100 | –
23 | CCOC(=O)C1=C(C2CCN(S(=O)(=O)[C@H]3C[C@](C)(C(=O)O)C3)CC2)NC(c2nccs2)=NC1c1ccc(F)c(F)c1Cl (stereo partly drawn) [Compound 270A, (trans)-3-((4-(6-(2-Chloro-3,4-difluorophenyl)-5-(ethoxycarbonyl)-2-(thiazol-2-yl)-3,6-dihydropyrimidin-4-yl)piperidin-1-yl)sulfonyl)-1-methylcyclobutanecarboxylic Acid] | 12 | 9200 | –
